Laboratory results reported in publication PMC9516332 (Frontiers in Oncology, 2022).
Where two headings read alike, the source gives them in different places.

Legend:
[1] = target: panel of 255 wild-type kinases (Homo sapiens, UniProt Q00534); details: CDK6/CycD3 kinase assay, 1 µmol/L single concentration, cited from earlier work
[2] = target: panel of 255 wild-type kinases (Homo sapiens, UniProt P49841); details: kinase GSK3β, 1 µmol/L single concentration, cited from earlier work
[3] = target: T1, panel of 255 wild-type kinases (Homo sapiens, UniProt P51955); details: NEK2, 1 µmol/L single concentration, cited from earlier work
T1 sequence (P51955 1-445): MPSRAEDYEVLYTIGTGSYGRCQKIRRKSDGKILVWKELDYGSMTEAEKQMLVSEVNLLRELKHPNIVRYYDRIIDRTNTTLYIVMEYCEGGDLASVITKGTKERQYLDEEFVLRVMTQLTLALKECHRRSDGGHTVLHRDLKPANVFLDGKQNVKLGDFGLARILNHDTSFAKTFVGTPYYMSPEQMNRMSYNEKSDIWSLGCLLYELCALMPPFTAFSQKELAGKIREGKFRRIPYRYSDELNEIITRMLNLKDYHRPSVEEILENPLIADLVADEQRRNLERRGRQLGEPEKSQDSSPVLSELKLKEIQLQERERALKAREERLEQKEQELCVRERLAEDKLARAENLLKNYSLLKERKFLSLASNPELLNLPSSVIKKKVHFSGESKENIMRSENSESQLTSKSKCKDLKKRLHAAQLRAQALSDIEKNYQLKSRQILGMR

[4] = target: panel of 255 wild-type kinases (Homo sapiens, UniProt P06493); details: CDC2/CycB1 kinase assay, 1 µmol/L single concentration, cited from earlier work
[5] = target: panel of 255 wild-type kinases (Homo sapiens, UniProt P51451); details: BLK kinase assay, 1 µmol/L single concentration, cited from earlier work
[6] = system: ERBB2-amplified cell lines; experiment: Cell viability assay, ERBB2-amplified versus non-amplified cell lines; type: cell-based; details: MANOVA
Procedure: The effect of compounds on cell viability was determined by measuring intracellular ATP content as an indirect readout of cell number ([15]). […] A vehicle-treated control (0.4% (v/v) DMSO) was included in quadruplicate on the same assay plate to determine maximum cell growth. The final DMSO concentration was 0.4% (v/v) in all wells. After incubation for another 72 hours, ATP content in each well was measured as described previously. […] When the cell doubling deviated > 2-fold from the historic doubling as determined in multiple independent experiments, the experiment was invalidated and repeated. […] IC50 values of kinase inhibitors were calculated by fitting a 4-parameter logistic curve to the percentage viability values using IDBS XLfit5 (IDBS, Guildford, United Kingdom). […] . For some compounds, biphasic curves were measured in one or more cell lines, indicating a dual mechanism of action in these cell lines ([29]). […] For all bioinformatic analyses, ^10log(IC50 [nmol/L]) values were used.
Cell lines were classified as having an alteration in a specific cancer gene if at least one allele was altered by point mutation, insertion, deletion, fusion, or amplification. The mutation, fusion, and amplification status of the cell lines was retrieved from the COSMIC cell lines project (version 80) ([23]), Cancer Cell Line Encyclopedia (CCLE), DepMap (version 22Q1) ([16]), and Cellosaurus ([30]) databases. In order to ensure that genomic alterations included in subsequent analyses were relevant to cancer growth and drug response, mutations were only included when they were either reported as a hotspot mutation in Cancer Hotspots ([31]), described as oncogenic and gain-of-function in OncoKB or JAX CKB, or described as pathogenic in the literature. […] J82 was therefore annotated as FGFR3 wild-type.
All statistical analyses were performed in R (version 4.1.2), unless otherwise indicated. A two-sided Mann-Whitney test was performed for two-group comparisons. […] . Multivariate analysis of variance (MANOVA) was performed for multi-group comparison.

EGFR-mutant cell lines = experiment: Cell viability assay, EGFR-mutant versus EGFR wild-type cell lines; type: cell-based
FGFR-altered cell lines = experiment: Cell viability assay, FGFR-altered versus FGFR wild-type cell lines; type: cell-based; details: for IC50: read-out: average IC50 in the eight FGFR-altered cell lines; for higher potency in FGFR-altered compared to FGFR wild-type cell lines: on average; for higher potency in FGFR-altered compared to FGFR wild-type cell lines / activity in FGFR-altered versus wild-type cell lines: MANOVA
[7] = target: panel of 255 wild-type kinases (Homo sapiens, UniProt Q92918); experiment: Kinase panel profiling at 1 µmol/L (MSA or IMAP), percentage inhibition; type: biochemical; details: kinase HPK1; 1 µmol/L single concentration; read-out: %-inhibition at 1 µmol/L, HPK1
ALK = target: T2, ALK (Homo sapiens, UniProt Q9UM73); experiment: Biochemical kinase assay (MSA), IC50
T2 construct: purchased Carna Biosciences (only by web pointer)

[8] = system: FLT3 ITD-mutant cell lines MOLM-13 and MV4-11; experiment: Cell viability assay; type: cell-based; details: cell viability
FGFR2 = target: T3, FGFR2 (Homo sapiens, UniProt P21802); experiment: Biochemical kinase assay (MSA), IC50
T3 construct: purchased Carna Biosciences (only by web pointer)

FGFR4 = target: T4, FGFR4 (Homo sapiens, UniProt P22455); experiment: Biochemical kinase assay (MSA), IC50
T4 construct: purchased Carna Biosciences (only by web pointer)

FGFR1 = target: T5, FGFR1 (Homo sapiens, UniProt P11362); experiment: Biochemical kinase assay (MSA), IC50
T5 construct: purchased Carna Biosciences (only by web pointer)

FGFR3 = target: T6, FGFR3 (Homo sapiens, UniProt P22607); experiment: Biochemical kinase assay (MSA), IC50
T6 construct: purchased Carna Biosciences (only by web pointer)

[9] = system: RET-altered cell lines (LC-2/ad, TT); experiment: Cell viability assay, RET-altered versus RET wild-type cell lines; type: cell-based; details: for lower IC50 in RET-altered versus wild-type cell lines: MANOVA
[10] = ref DOI: 10.1158/1535-7163.MCT-18-0877
[11] = ref DOI: 10.1371/journal.pone.0092146

## C=CC(=O)N1CCC[C@@H](n2nc(-c3ccc(Oc4ccccc4)cc3)c3c(N)ncnc32)C1 [ibrutinib]
[1]; [10]
  %-inhibition CDK6/CycD3: 4.32%
[2]; [10]
  %-inhibition at 1 µmol/L, GSK3β: -4%
[3]; [10]
  %-inhibition, NEK2: 6.64%
[4]; [10]
  %-inhibition CDC2/CycB1: -1%
[5]; [10]
  %-inhibition BLK: 101%
[6]
  preferential targeting of ERBB2-amplified versus non-amplified cell lines: 254 fold
EGFR-mutant cell lines; on average, MANOVA
  lower IC50 (higher potency) in EGFR-mutant compared to EGFR wild-type cell lines: 28 fold

## CCN1CCN(c2ccc(Nc3cc(N(C)C(=O)Nc4c(Cl)c(OC)cc(OC)c4Cl)ncn3)cc2)CC1 [infigratinib]
FGFR-altered cell lines; average IC50
  potency in FGFR-altered cell lines compared to erdafitinib and pemigatinib: more than three-fold lower potency
FGFR-altered cell lines; geometric average
  IC50: 0.02 µM
FGFR-altered cell lines
  higher potency in FGFR-altered compared to FGFR wild-type cell lines: 130 fold
[7]
  inhibition at 1 µM: 65%

## O=C(Nc1cnn2ccc(N3CCC[C@@H]3c3cc(F)ccc3F)nc12)N1CC[C@H](O)C1 [larotrectinib]
[7]
  inhibition at 1 µM: 1%
ALK
  IC50: > 1 µM
[8]
  higher IC50 in MOLM-13 and MV4-11 compared to AP-1060: more than 1000 fold

## CO[C@@H]1[C@H](N(C)C(=O)c2ccccc2)C[C@H]2O[C@]1(C)n1c3ccccc3c3c4c(c5c6ccccc6n2c5c31)C(=O)NC4 [midostaurin]
[1]; [10]
  %-inhibition CDK6/CycD3: 1.81%
[3]; [10]
  %-inhibition, NEK2: 0.207%
[4]; [10]
  %-inhibition CDC2/CycB1: 22%
[5]; [10]
  %-inhibition BLK: 84%

## C=CC(=O)Nc1cc(Nc2nccc(-c3cn(C)c4ccccc34)n2)c(OC)cc1N(C)CCN(C)C [osimertinib]
[1]; [10]
  %-inhibition CDK6/CycD3: 0.62%
[2]; [10]
  %-inhibition at 1 µmol/L, GSK3β: -4%
[3]; [10]
  %-inhibition, NEK2: 8%
[4]; [10]
  %-inhibition CDC2/CycB1: 23%
[5]; [10]
  %-inhibition BLK: 66%
EGFR-mutant cell lines
  lower IC50 (higher potency) in EGFR-mutant compared to EGFR wild-type cell lines: 33 fold

## CCN1C(=O)N(c2c(F)c(OC)cc(OC)c2F)Cc2cnc3[nH]c(CN4CCOCC4)cc3c21 [pemigatinib]
FGFR-altered cell lines
  higher potency in FGFR-altered compared to FGFR wild-type cell lines: over 500 fold
  IC50: 0.0043 µM
[7]
  inhibition at 1 µM: 21%

## CO[C@]1(C(=O)N[C@@H](C)c2ccc(-n3cc(F)cn3)nc2)CC[C@H](c2nc(C)cc(Nc3cc(C)[nH]n3)n2)CC1 [pralsetinib]
FGFR-altered cell lines
  activity in FGFR-altered versus wild-type cell lines: around ten times more active
FGFR2
  IC50: 0.027 µM
FGFR4
  IC50: 0.183 µM
FGFR1
  IC50: 0.011 µM
[7]
  inhibition at 1 µM: 50%
FGFR3
  IC50: 0.05 µM
[9]
  lower IC50 in RET-altered versus wild-type cell lines: 76 fold

## COc1ccc(CN2C3CC2CN(c2ccc(-c4cc(OCC(C)(C)O)cn5ncc(C#N)c45)cn2)C3)cn1 [selpercatinib]
FGFR-altered cell lines
  activity in FGFR-altered versus wild-type cell lines: around ten times more active
FGFR2
  IC50: 0.016 µM
FGFR4
  IC50: 0.26 µM
FGFR1
  IC50: 0.046 µM
[7]
  inhibition at 1 µM: 8.44%
FGFR3
  IC50: 0.05 µM
[9]
  lower IC50 in RET-altered versus wild-type cell lines: 232 fold
[9]; cell viability
  potency in the RET-altered cell lines compared to pralsetinib: three-fold more potent

## Cn1cnc2c(F)c(Nc3ccc(Br)cc3Cl)c(C(=O)NOCCO)cc21 [selumetinib]
[7]
  inhibition at 1 µM: 9.49%

## CC(=O)Nc1cccc(-n2c(=O)n(C3CC3)c(=O)c3c(Nc4ccc(I)cc4F)n(C)c(=O)c(C)c32)c1 [trametinib]
[1]; [11]
  %-inhibition CDK6/CycD3: -4.23%
[2]; [11]
  %-inhibition at 1 µmol/L, GSK3β: -15%
[3]; [11]
  %-inhibition, NEK2: 2.76%
[4]; [11]
  %-inhibition CDC2/CycB1: 8%
[5]; [11]
  %-inhibition BLK: -2.79%

## CCCS(=O)(=O)Nc1ccc(F)c(C(=O)c2c[nH]c3ncc(-c4ccc(Cl)cc4)cc23)c1F [vemurafenib]
[1]; [11]
  %-inhibition CDK6/CycD3: 2.43%
[2]; [11]
  %-inhibition at 1 µmol/L, GSK3β: 8%
[3]; [11]
  %-inhibition, NEK2: -1%
[4]; [11]
  %-inhibition CDC2/CycB1: 10%
[5]; [11]
  %-inhibition BLK: 52%
